Tested on: 313798-341-R-J2-PDC spheroids, viability
Test: Anticancer human tumor 313798-341-R-J2-PDC patient-derived cervical squamous cell carcinoma cell line growth inhibition [PI3K]
Conditions: spheroids with HUVEC and MSC; for viability, T/C: stronger effect = lower value
Summary of the method: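 Tumor cells grown as multi-cell spheroids with HUVEC endothelial cells and MSC fibroblast-like stroma were treated with targeted agents combined with inavolisib, alpelisib, duvelisib or copanlisib. Doses fell in half-log steps from near clinical Cmax, else from 10 microM. Viability was measured.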

[1] = curve of first compound, second compound 0.0316 µM
[2] = curve of first compound, second compound 0.1 µM
[3] = curve of first compound, second compound 0.316 µM
[4] = curve of first compound, second compound 1 µM
[5] = second compound 0.0316 µM, first compound 0.0316 µM
[6] = second compound 0.0316 µM, first compound 0.1 µM
[7] = second compound 0.1 µM, first compound 0.0316 µM
[8] = second compound 0.1 µM, first compound 0.1 µM
[9] = second compound 0.316 µM, first compound 0.0316 µM
[10] = second compound 0.316 µM, first compound 0.1 µM
[11] = second compound 1 µM, first compound 0.0316 µM
[12] = second compound 1 µM, first compound 0.1 µM
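Also: spheroids exposed to compounds for seven days.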
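For viability, T/C in this document: 100% = DMSO vehicle control viability.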

Q: For `Cn1ncnc1[C@H]1c2n[nH]c(=O)c3cc(F)cc(c23)N[C@@H]1c1ccc(F)cc1` + CC(Nc1ccc2c(c1)OCCn1cc(N3C(=O)OCC3C(F)F)nc1-2)C(N)=O, which IC50 (curve of first compound, second compound 0.00316 µM) is on record?
A: > 100 nM

Q: What about the IC50 (curve of first compound, second compound 0.01 µM) of the same molecule?
A: > 100 nM

Q: And the IC50 [1]?
A: > 100 nM

Q: And the IC50 [2]?
A: > 100 nM

Q: What about the IC50 [3] of the same molecule?
A: > 100 nM

Q: What about the IC50 [4] of the same molecule?
A: 22.5 nM

Q: And the viability, T/C (second compound 0.00316 µM, first compound 0.000316 µM)?
A: 104%

Q: And the viability, T/C (second compound 0.00316 µM, first compound 0.001 µM)?
A: 96.2%

Q: What about the viability, T/C (second compound 0.00316 µM, first compound 0.00316 µM) of the same molecule?
A: 99.1%

Q: What about the viability, T/C (second compound 0.00316 µM, first compound 0.01 µM) of the same molecule?
A: 98.1%

Q: And the viability, T/C (second compound 0.00316 µM, first compound 0.0316 µM)?
A: 94.9%

Q: What about the viability, T/C (second compound 0.00316 µM, first compound 0.1 µM) of the same molecule?
A: 84.7%

Q: And the viability, T/C (second compound 0.01 µM, first compound 0.000316 µM)?
A: 95.7%

Q: And the viability, T/C (second compound 0.01 µM, first compound 0.001 µM)?
A: 104%

Q: And the viability, T/C (second compound 0.01 µM, first compound 0.00316 µM)?
A: 88.5%

Q: And the viability, T/C (second compound 0.01 µM, first compound 0.01 µM)?
A: 93.5%

Q: What about the viability, T/C (second compound 0.01 µM, first compound 0.0316 µM) of the same molecule?
A: 92.8%

Q: And the viability, T/C (second compound 0.01 µM, first compound 0.1 µM)?
A: 83.5%

Q: What about the viability, T/C (second compound 0.0316 µM, first compound 0.000316 µM) of the same molecule?
A: 107%

Q: And the viability, T/C (second compound 0.0316 µM, first compound 0.001 µM)?
A: 102%

Q: And the viability, T/C (second compound 0.0316 µM, first compound 0.00316 µM)?
A: 115%

Q: And the viability, T/C (second compound 0.0316 µM, first compound 0.01 µM)?
A: 106%

Q: What about the viability, T/C [5] of the same molecule?
A: 100%

Q: And the viability, T/C [6]?
A: 100%

Q: What about the viability, T/C (second compound 0.1 µM, first compound 0.000316 µM) of the same molecule?
A: 102%

Q: And the viability, T/C (second compound 0.1 µM, first compound 0.001 µM)?
A: 102%

Q: What about the viability, T/C (second compound 0.1 µM, first compound 0.00316 µM) of the same molecule?
A: 91.7%

Q: And the viability, T/C (second compound 0.1 µM, first compound 0.01 µM)?
A: 89%

Q: What about the viability, T/C [7] of the same molecule?
A: 96.9%

Q: What about the viability, T/C [8] of the same molecule?
A: 72.8%

Q: What about the viability, T/C (second compound 0.316 µM, first compound 0.000316 µM) of the same molecule?
A: 77.2%

Q: And the viability, T/C (second compound 0.316 µM, first compound 0.001 µM)?
A: 78%

Q: What about the viability, T/C (second compound 0.316 µM, first compound 0.00316 µM) of the same molecule?
A: 78.3%

Q: And the viability, T/C (second compound 0.316 µM, first compound 0.01 µM)?
A: 73.6%

Q: And the viability, T/C [9]?
A: 71.3%

Q: And the viability, T/C [10]?
A: 58.1%

Q: And the viability, T/C (second compound 1 µM, first compound 0.000316 µM)?
A: 57.5%

Q: What about the viability, T/C (second compound 1 µM, first compound 0.001 µM) of the same molecule?
A: 57%

Q: And the viability, T/C (second compound 1 µM, first compound 0.00316 µM)?
A: 58.3%

Q: What about the viability, T/C (second compound 1 µM, first compound 0.01 µM) of the same molecule?
A: 48.1%

Q: What about the viability, T/C [11] of the same molecule?
A: 52.1%

Q: And the viability, T/C [12]?
A: 38.1%

Q: Which results are given for `CC(Cn1ccc(-c2ccc(C#N)c(Cl)c2)n1)NC(=O)c1cc(C(C)O)[nH]n1` (stereo unspecified) + CC(Nc1ncnc2nc[nH]c12)c1cc2cccc(Cl)c2c(=O)n1-c1ccccc1?
A: IC50 [1]: > 10000 nM; IC50 [2]: > 10000 nM; IC50 [3]: > 10000 nM; IC50 [4]: > 10000 nM; IC50 (curve of first compound, second compound 3.16 µM): > 10000 nM; IC50 (curve of first compound, second compound 10 µM): > 10000 nM; viability, T/C [5]: 119%; viability, T/C [6]: 103%; viability, T/C (second compound 0.0316 µM, first compound 0.316 µM): 106%; viability, T/C (second compound 0.0316 µM, first compound 1 µM): 115%; viability, T/C (second compound 0.0316 µM, first compound 3.16 µM): 101%; viability, T/C (second compound 0.0316 µM, first compound 10 µM): 101%; viability, T/C [7]: 101%; viability, T/C [8]: 105%; viability, T/C (second compound 0.1 µM, first compound 0.316 µM): 104%; viability, T/C (second compound 0.1 µM, first compound 1 µM): 103%; viability, T/C (second compound 0.1 µM, first compound 3.16 µM): 98%; viability, T/C (second compound 0.1 µM, first compound 10 µM): 95%; viability, T/C [9]: 90.9%; viability, T/C [10]: 103%; viability, T/C (second compound 0.316 µM, first compound 0.316 µM): 96.6%; viability, T/C (second compound 0.316 µM, first compound 1 µM): 101%; viability, T/C (second compound 0.316 µM, first compound 3.16 µM): 102%; viability, T/C (second compound 0.316 µM, first compound 10 µM): 90%; viability, T/C [11]: 113%; viability, T/C [12]: 106%; viability, T/C (second compound 1 µM, first compound 0.316 µM): 108%; viability, T/C (second compound 1 µM, first compound 1 µM): 101%; viability, T/C (second compound 1 µM, first compound 3.16 µM): 96.2%; viability, T/C (second compound 1 µM, first compound 10 µM): 91.5%; viability, T/C (second compound 3.16 µM, first compound 0.0316 µM): 108%; viability, T/C (second compound 3.16 µM, first compound 0.1 µM): 103%; viability, T/C (second compound 3.16 µM, first compound 0.316 µM): 100%; viability, T/C (second compound 3.16 µM, first compound 1 µM): 107%; viability, T/C (second compound 3.16 µM, first compound 3.16 µM): 105%; viability, T/C (second compound 3.16 µM, first compound 10 µM): 93.4%; viability, T/C (second compound 10 µM, first compound 0.0316 µM): 87.8%; viability, T/C (second compound 10 µM, first compound 0.1 µM): 88.3%; viability, T/C (second compound 10 µM, first compound 0.316 µM): 94.6%; viability, T/C (second compound 10 µM, first compound 1 µM): 100%; viability, T/C (second compound 10 µM, first compound 3.16 µM): 90.8%; viability, T/C (second compound 10 µM, first compound 10 µM): 81.7%

Q: `COc1c(OCCCN2CCOCC2)ccc2c3n(c(=NC(=O)c4cnc(N)nc4)nc12)CCN3` was tested. Which viability, T/C (compound 0.00316 µM) did it give?
A: 101% [middle of 7 runs]

Q: And the viability, T/C (compound 0.01 µM)?
A: 102% [middle of 7 runs]

Q: What about the viability, T/C (compound 0.0316 µM) of the same molecule?
A: 84.5% [middle of 7 runs]

Q: And the viability, T/C (compound 0.1 µM)?
A: 42.1% [middle of 7 runs]

Q: What about the viability, T/C (compound 0.316 µM) of the same molecule?
A: 14.9% [middle of 7 runs]

Q: And the viability, T/C (compound 1 µM)?
A: 11.9% [middle of 7 runs]

Q: What about the IC50 (compound alone, run of 04/25/2023) of the same molecule?
A: 80.2 nM [middle of 7 runs]
